According to patent US10597388B2, “Pyridazinone herbicides” (FMC CORPORATION, priority 2014, dated 2020):

How the values were obtained:
Assay in all cases: Test C greenhouse herbicide test, pre- and postemergence
Format in all cases: in vivo
[1] = system: wheat (winter wheat, Triticum aestivum)
How it was run: (§1)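 Seeds sown in loam–sand blend treated preemergence; plants in peat-based medium sprayed postemergence at 2–18 cm (1- to 4-leaf stage); chemicals in non-phytotoxic solvent with surfactant. Greenhouse 13–15 d, then visual rating versus controls on 0–100 scale (0 no effect, 100 complete control).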

[2] = system: barnyardgrass (Echinochloa crus-galli)
How it was run: as §1

[3] = system: blackgrass (Alopecurus myosuroides)
How it was run: as §1

[4] = system: johnsongrass (Sorghum halepense)
How it was run: as §1

[5] = system: foxtail, giant (giant foxtail, Setaria faberii)
How it was run: as §1

[6] = system: ryegrass, Italian (Italian ryegrass, Lolium multiflorum)
How it was run: as §1

corn (Zea mays) = system: corn (Zea mays)
How it was run: as §1

[7] = system: crabgrass, large (large crabgrass, Digitaria sanguinalis)
How it was run: as §1

soybean (Glycine max) = system: soybean (Glycine max)
How it was run: as §1

[8] = system: velvetleaf (Abutilon theophrasti)
How it was run: as §1

[9] = system: nutsedge, yellow (yellow nutsedge, Cyperus esculentus)
How it was run: as §1

[10] = system: galium (catchweed bedstraw, Galium aparine)
How it was run: as §1

[11] = Postemergence, 31 g ai/ha, 0 to 100 scale (0 no effect, 100 complete control)
[12] = Postemergence, 125 g ai/ha, scale 0 to 100, 0 is no effect, 100 is complete control
[13] = Postemergence, 250 g ai/ha, scale 0 to 100, 0 no effect, 100 complete control, 13 to 15 d
[14] = Preemergence, 62 g ai/ha, scale 0 to 100, 0 is no effect, 100 is complete control
[15] = Preemergence, 125 g ai/ha, scale 0 to 100, 0 is no effect, 100 is complete control
[16] = Preemergence, 250 g ai/ha, scale 0 to 100, 0 no effect, 100 complete control
[17] = postemergence, 62 g ai/ha, scale 0 to 100, 0 no effect, 100 complete control
[18] = Preemergence, 31 g ai/ha, scale 0 to 100, 0 is no effect, 100 is complete control

Cc1nn(C)c(=O)c(-c2cccc3ccccc23)c1O [Compound 11, 5-hydroxy-2,6-dimethyl-4-(1-naphthalenyl)-3(2H)-pyridazinone]
Wheat plant response rating [1, 11]: 0 | Plant response rating, Wheat [1, 12]: 5 | Plant response rating, Wheat [1, 13]: 5 | Plant response rating, Wheat [1, 14]: 0 | Plant response rating, Wheat [1, 15]: 0 | Wheat plant response rating [1, 16]: 10 | Wheat plant response rating [1, 17]: 0 | Barnyardgrass plant response rating [2, 11]: 0 | Plant response rating, Barnyardgrass [2, 12]: 5 | Plant response rating, Barnyardgrass [2, 13]: 15 | Plant response rating, Barnyardgrass [2, 18]: 0 | Plant response rating, Barnyardgrass [2, 14]: 0 | Plant response rating, Barnyardgrass [2, 15]: 10 | Barnyardgrass plant response rating [2, 16]: 80 | Barnyardgrass plant response rating [2, 17]: 0 | Blackgrass plant response rating [3, 11]: 5 | Plant response rating, Blackgrass [3, 12]: 30 | Plant response rating, Blackgrass [3, 13]: 75 | Plant response rating, Blackgrass [3, 18]: 35 | Plant response rating, Blackgrass [3, 14]: 40 | Plant response rating, Blackgrass [3, 15]: 50 | Blackgrass plant response rating [3, 16]: 85 | Blackgrass plant response rating [3, 17]: 15 | Johnsongrass plant response rating [4, 11]: 0 | Plant response rating, Johnsongrass [4, 12]: 5 | Plant response rating, Johnsongrass [4, 13]: 5 | Plant response rating, Johnsongrass [4, 18]: 0 | Plant response rating, Johnsongrass [4, 14]: 0 | Plant response rating, Johnsongrass [4, 15]: 0 | Johnsongrass plant response rating [4, 16]: 0 | Johnsongrass plant response rating [4, 17]: 0 | Foxtail, Giant plant response rating [5, 11]: 5 | Plant response rating, Foxtail, Giant [5, 12]: 10 | Plant response rating, Foxtail, Giant [5, 13]: 30 | Plant response rating, Foxtail, Giant [5, 18]: 0 | Plant response rating, Foxtail, Giant [5, 14]: 35 | Plant response rating, Foxtail, Giant [5, 15]: 50 | Foxtail, Giant plant response rating [5, 16]: 90 | Foxtail, Giant plant response rating [5, 17]: 5 | Ryegrass, Italian plant response rating [6, 11]: 70 | Plant response rating, Ryegrass, Italian [6, 12]: 90 | Plant response rating, Ryegrass, Italian [6, 13]: 90 | Plant response rating, Ryegrass, Italian [6, 18]: 90 | Plant response rating, Ryegrass, Italian [6, 14]: 95 | Plant response rating, Ryegrass, Italian [6, 15]: 100 | Ryegrass, Italian plant response rating [6, 16]: 100 | Ryegrass, Italian plant response rating [6, 17]: 70 | Corn plant response rating (corn (Zea mays); [11]): 0 | Plant response rating, Corn (corn (Zea mays); [12]): 0 | Plant response rating, Corn (corn (Zea mays); [13]): 0 | Plant response rating, Corn (corn (Zea mays); [18]): 0 | Plant response rating, Corn (corn (Zea mays); [14]): 0 | Plant response rating, Corn (corn (Zea mays); [15]): 0 | Corn plant response rating (corn (Zea mays); [16]): 0 | Corn plant response rating (corn (Zea mays); [17]): 0 | Crabgrass, Large plant response rating [7, 11]: 0 | Plant response rating, Crabgrass, Large [7, 12]: 0 | Plant response rating, Crabgrass, Large [7, 13]: 10 | Plant response rating, Crabgrass, Large [7, 18]: 0 | Plant response rating, Crabgrass, Large [7, 14]: 0 | Plant response rating, Crabgrass, Large [7, 15]: 40 | Crabgrass, Large plant response rating [7, 16]: 40 | Crabgrass, Large plant response rating [7, 17]: 0 | Soybean plant response rating (soybean (Glycine max); [11]): 0 | Plant response rating, Soybean (soybean (Glycine max); [12]): 0 | Plant response rating, Soybean (soybean (Glycine max); [13]): 0 | Plant response rating, Soybean (soybean (Glycine max); [14]): 0 | Plant response rating, Soybean (soybean (Glycine max); [15]): 0 | Soybean plant response rating (soybean (Glycine max); [16]): 0 | Soybean plant response rating (soybean (Glycine max); [17]): 0 | Velvetleaf plant response rating [8, 11]: 0 | Plant response rating, Velvetleaf [8, 12]: 45 | Plant response rating, Velvetleaf [8, 13]: 80 | Plant response rating, Velvetleaf [8, 14]: 10 | Plant response rating, Velvetleaf [8, 15]: 90 | Velvetleaf plant response rating [8, 16]: 90 | Velvetleaf plant response rating [8, 17]: 5 | Nutsedge, Yellow plant response rating [9, 11]: 5 | Plant response rating, Nutsedge, Yellow [9, 12]: 30 | Plant response rating, Nutsedge, Yellow [9, 13]: 45 | Plant response rating, Nutsedge, Yellow [9, 18]: 0 | Plant response rating, Nutsedge, Yellow [9, 14]: 5 | Plant response rating, Nutsedge, Yellow [9, 15]: 10 | Nutsedge, Yellow plant response rating [9, 16]: 30 | Nutsedge, Yellow plant response rating [9, 17]: 15 | Galium plant response rating [10, 11]: 75 | Plant response rating, Galium [10, 12]: 90 | Plant response rating, Galium [10, 13]: 90 | Plant response rating, Galium [10, 18]: 85 | Plant response rating, Galium [10, 14]: 90 | Plant response rating, Galium [10, 15]: 90 | Galium plant response rating [10, 16]: 95 | Galium plant response rating [10, 17]: 90
